Reference: patent US8431596B2 (Cancer Research Technology Limited, priority 2007, dated 2013)
Values joined by “and” are separate entries in the source; they are usually repeats but may differ in a detail not shown here. Equal entries are not always repeated.

Target: T1, AXL (human catalytic domain) (Homo sapiens, UniProt P30530)
T1 construct: purchased Upstate Ltd. 14-512
T1 sequence (P30530 473-894): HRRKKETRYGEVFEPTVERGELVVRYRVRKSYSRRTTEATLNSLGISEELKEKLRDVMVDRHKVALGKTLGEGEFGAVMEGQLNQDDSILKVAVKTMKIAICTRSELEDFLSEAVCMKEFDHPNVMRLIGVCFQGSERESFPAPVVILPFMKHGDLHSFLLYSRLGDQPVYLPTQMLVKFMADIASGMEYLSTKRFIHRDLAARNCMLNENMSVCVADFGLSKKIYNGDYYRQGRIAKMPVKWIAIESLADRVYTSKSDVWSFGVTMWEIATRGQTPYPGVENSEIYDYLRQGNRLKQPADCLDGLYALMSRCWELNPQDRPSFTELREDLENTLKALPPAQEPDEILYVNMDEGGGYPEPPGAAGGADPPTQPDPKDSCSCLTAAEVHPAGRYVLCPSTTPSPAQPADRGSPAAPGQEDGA
Assay: AXL (human catalytic domain) Enzyme Activity Assay (IMAP fluorescence polarisation)
Type: biochemical
How it was run: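 IMAP FP readout (Ex485/Em535, after overnight binding) measured inhibition of the human AXL catalytic domain (aa473-894, 15 nM final) acting on 100 nM 5FAM-CSK-tide at 150 μM ATP, equal to KM. Reactions ran 60 min at room temperature in pH 7.0 HEPES buffer; IC50 from 10-point curves.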

[1] = further data set (WW-001 through WW-169, XX-001 through XX-469, YY-001 through YY-016, ZZ-001 through ZZ-003), 150 μM ATP
[2] = first data set, recombinant AXL isoform 1 aa473-894, 150 μM ATP

Compound	IC50 [1] [µM]	IC50 [2]
CCN(CC)CCOc1ccc(Nc2nc3cccc(-c4ccc(OC)cc4)n3n2)cc1F [XX-412]	1 to 10	–
COc1ccc(-c2cccc3nc(Nc4ccc(OC[C@H](c5ccccc5)N5CCCC5)cc4)nn23)cc1 [XX-413]	0.1 to 1	–
CC[C@H](COc1ccc(Nc2nc3cccc(-c4ccc(OC)cc4)n3n2)cc1)N1CCCC1 [XX-414]	≤ 0.1	–
CCN(CC)CCOc1cc(Nc2nc3cccc(-c4ccc(OC)cc4)n3n2)ccc1C [XX-415]	0.1 to 1	–
CCN(CC)CCOc1c(C)cc(Nc2nc3cccc(-c4ccc(OC)cc4)n3n2)cc1C [XX-416]	≤ 0.1	–
CCN(CC)CCOc1ccc(Nc2nc3cccc(-c4ccc(OC)cc4)n3n2)cc1Cl [XX-417]	0.1 to 1	–
CCN(CC)CCOc1cc(Nc2nc3cccc(-c4ccc(OC)cc4)n3n2)cc(F)c1F [XX-418]	0.1 to 1	–
c1cc(-c2ccc3c(c2)OCCO3)n2nc(Nc3ccc(OCCCN4CCCCC4)cc3)nc2c1 [XX-419]	0.1 to 1	–
CC(C)Oc1ccc(-c2cccc3nc(Nc4ccc(OCCCN5CCCCC5)cc4)nn23)cc1 [XX-420]	0.1 to 1	–
Cc1ccc(-c2cccc3nc(Nc4ccc(OCCCN5CCCCC5)cc4)nn23)cc1F [XX-421]	0.1 to 1	–
c1ccc2sc(-c3cccc4nc(Nc5ccc(OCCCN6CCCCC6)cc5)nn34)cc2c1 [XX-422]	0.1 to 1	–
c1ccc(Cn2cc(-c3cccc4nc(Nc5ccc(OCCCN6CCCCC6)cc5)nn34)cn2)cc1 [XX-423]	0.1 to 1	–
Cc1csc(SCCn2cc(-c3cccc4nc(Nc5ccc(OCCN6CCCC6)cc5)nn34)cn2)n1 [XX-424]	0.1 to 1	–
c1cc(-c2cnn(CCSc3nccs3)c2)n2nc(Nc3ccc(OCCN4CCCC4)cc3)nc2c1 [XX-425]	0.1 to 1	–
c1csc(SCCn2cc(-c3cccc4nc(Nc5ccc(OCCN6CCCC6)cc5)nn34)cn2)c1 [XX-426]	0.1 to 1	–
c1coc(CSCCn2cc(-c3cccc4nc(Nc5ccc(OCCN6CCCC6)cc5)nn34)cn2)c1 [XX-427]	0.1 to 1	–
Cn1nnnc1SCCn1cc(-c2cccc3nc(Nc4ccc(OCCN5CCCC5)cc4)nn23)cn1 [XX-428]	1 to 10	–
Cn1cnnc1SCCn1cc(-c2cccc3nc(Nc4ccc(OCCN5CCCC5)cc4)nn23)cn1 [XX-429]	0.1 to 1	–
Cc1nnc(SCCn2cc(-c3cccc4nc(Nc5ccc(OCCN6CCCC6)cc5)nn34)cn2)s1 [XX-430]	0.1 to 1	–
Clc1cccc(SCCn2cc(-c3cccc4nc(Nc5ccc(OCCN6CCCC6)cc5)nn34)cn2)c1 [XX-431]	0.1 to 1	–

Compound	IC50 [1] [µM]	IC50 [2]
O=C(Cn1cc(-c2cccc3nc(Nc4ccc(OCCN5CCCC5)cc4)nn23)cn1)Nc1ccccc1 [XX-432]	0.1 to 1	–
O=C(Cn1cc(-c2cccc3nc(Nc4ccc(OCCN5CCCC5)cc4)nn23)cn1)NCc1ccccc1 [XX-433]	0.1 to 1	–
CC(C)NC(=O)Cn1cc(-c2cccc3nc(Nc4ccc(OCCN5CCCC5)cc4)nn23)cn1 [XX-434]	1 to 10	–
O=C(Cn1cc(-c2cccc3nc(Nc4ccc(OCCN5CCCC5)cc4)nn23)cn1)Nc1cccc(Cl)c1 [XX-435]	0.1 to 1	–
O=C(Cn1cc(-c2cccc3nc(Nc4ccc(OCCN5CCCC5)cc4)nn23)cn1)NCCO [XX-436]	0.1 to 1	–
O=C(Cn1cc(-c2cccc3nc(Nc4ccc(OCCN5CCCC5)cc4)nn23)cn1)NC1CC1 [XX-437]	1 to 10	–
Cc1c(-c2cccc3nc(Nc4ccc(OCCN5CCCC5)cc4)nn23)cnn1-c1ccccc1 [XX-438]	0.1 to 1	–
Cn1ccc2cc(-c3cccc4nc(Nc5ccc(OCCN6CCCC6)cc5)nn34)ccc21 [XX-439]	0.1 to 1	–
O=C(O)Cn1cc(-c2cccc3nc(Nc4ccc(OCCN5CCCC5)cc4)nn23)cn1 [XX-440, (4-{2-[4-(2-Pyrrolidin-1-yl-ethoxy)-phenylamino]-[1,2,4]triazolo[1,5-a]pyridin-5-yl}-pyrazol-1-yl)-acetic acid]	1 to 10	–
CCCNC(=O)Cn1cc(-c2cccc3nc(Nc4ccc(OCCN5CCCC5)cc4)nn23)cn1 [XX-441]	0.1 to 1	–
c1cncc(CNc2cccc(-c3cccc4nc(Nc5ccc(OCCN6CCCC6)cc5)nn34)c2)c1 [XX-442]	0.1 to 1	–
Fc1ccc(CNc2cccc(-c3cccc4nc(Nc5ccc(OCCN6CCCC6)cc5)nn34)c2)nc1 [XX-443]	0.1 to 1	–
c1cc(NCC2CC2)cc(-c2cccc3nc(Nc4ccc(OCCN5CCCC5)cc4)nn23)c1 [XX-444]	0.1 to 1	–
c1ccc(-c2cc(CNc3cccc(-c4cccc5nc(Nc6ccc(OCCN7CCCC7)cc6)nn45)c3)no2)cc1 [XX-445]	0.1 to 1	–
Cc1cc(CNc2cccc(-c3cccc4nc(Nc5ccc(OCCN6CCCC6)cc5)nn34)c2)no1 [XX-446]	0.1 to 1	–
c1cc(NCc2nc3c(s2)CCCC3)cc(-c2cccc3nc(Nc4ccc(OCCN5CCCC5)cc4)nn23)c1 [XX-447]	0.1 to 1	–
FC(F)(F)c1ccc(CNc2cccc(-c3cccc4nc(Nc5ccc(OCCN6CCCC6)cc5)nn34)c2)o1 [XX-448]	0.1 to 1	–
Cc1ncc(CNc2cccc(-c3cccc4nc(Nc5ccc(OCCN6CCCC6)cc5)nn34)c2)n1C [XX-449]	0.1 to 1	–
COc1cc(CNc2cccc(-c3cccc4nc(Nc5ccc(OCCN6CCCC6)cc5)nn34)c2)cc(OC)c1 [XX-450]	0.1 to 1	–
COc1ccccc1CNc1cccc(-c2cccc3nc(Nc4ccc(OCCN5CCCC5)cc4)nn23)c1 [XX-451]	0.1 to 1	–

Now from value to compound:

IC50 [1] [µM]	IC50 [2]	Compound
0.1 to 1	–	COc1cccc(CNc2cccc(-c3cccc4nc(Nc5ccc(OCCN6CCCC6)cc5)nn34)c2)c1 [XX-452]
0.1 to 1	–	COc1ccc(CNc2cccc(-c3cccc4nc(Nc5ccc(OCCN6CCCC6)cc5)nn34)c2)cc1 [XX-453]
0.1 to 1	–	Cc1ccccc1CNc1cccc(-c2cccc3nc(Nc4ccc(OCCN5CCCC5)cc4)nn23)c1 [XX-454]
1 to 10	–	Cc1cccc(CNc2cccc(-c3cccc4nc(Nc5ccc(OCCN6CCCC6)cc5)nn34)c2)c1 [XX-455]
0.1 to 1	–	Fc1ccc(CNc2cccc(-c3cccc4nc(Nc5ccc(OCCN6CCCC6)cc5)nn34)c2)cc1 [XX-456]
1 to 10	–	Cc1ccc(COc2cccc(-c3cccc4nc(Nc5ccc(OCCN6CCCC6)cc5)nn34)c2)cc1 [XX-457]
1 to 10	–	Cn1nc(COc2cccc(-c3cccc4nc(Nc5ccc(OCCN6CCCC6)cc5)nn34)c2)cc1-c1ccccc1 [XX-459]
0.1 to 1	–	Cc1cc(COc2cccc(-c3cccc4nc(Nc5ccc(OCCN6CCCC6)cc5)nn34)c2)nn1C [XX-460]
1 to 10	–	COc1ccc(-c2nc(COc3cccc(-c4cccc5nc(Nc6ccc(OCCN7CCCC7)cc6)nn45)c3)no2)cc1 [XX-461]
1 to 10	–	O=C(NCc1ccc(Cl)cc1)c1cccc(-c2cccc3nc(Nc4ccc(OCCN5CCCC5)cc4)nn23)c1 [XX-462, N-(4-Chloro-benzyl)-3-{2-[4-(2-pyrrolidin-1-yl-ethoxy)-phenylamino]-[1,2,4]triazolo[1,5-a]pyridin-5-yl}-benzamide]
1 to 10	–	Cc1ccc(-c2cccc(-c3cccc4nc(Nc5ccc(OCCN6CCCC6)cc5)nn34)c2)s1 [XX-463]
0.1 to 1	–	Cc1noc(C)c1-c1cccc(-c2cccc3nc(Nc4ccc(OCCN5CCCC5)cc4)nn23)c1 [XX-464]
1 to 10	–	Cc1ccc(-c2cccc(-c3cccc4nc(Nc5ccc(OCCN6CCCC6)cc5)nn34)c2)cc1 [XX-465]
0.1 to 1	–	c1cc(-c2ccncc2)cc(-c2cccc3nc(Nc4ccc(OCCN5CCCC5)cc4)nn23)c1 [XX-466]
1 to 10	–	Fc1ccc(-c2cccc(-c3cccc4nc(Nc5ccc(OCCN6CCCC6)cc5)nn34)c2)cc1 [XX-467]
1 to 10	–	COc1ccc(-c2cccc(-c3cccc4nc(Nc5ccc(OCCN6CCCC6)cc5)nn34)c2)cc1 [XX-468]
0.1 to 1	–	c1cc(-c2cncnc2)cc(-c2cccc3nc(Nc4ccc(OCCN5CCCC5)cc4)nn23)c1 [XX-469]
≤ 0.1	< 1 µM	COc1ccc(-c2nccc3nc(Nc4ccc(OCCN5CCCCC5)cc4)nn23)cc1 [YY-002]
0.1 to 1	< 1 µM and 0.105 µM	COc1ccc(-c2nccc3nc(Nc4ccc(OCCN(C)C)cc4)nn23)cc1 [YY-003]
≤ 0.1	< 1 µM	COc1ccc(-c2nccc3nc(Nc4ccc(C(=O)NCCN(C)C)cc4)nn23)cc1 [YY-004]
1 to 10	–	CCOc1ccc(-c2nccc3nc(Nc4cccc(OCCN(CC)CC)c4)nn23)cc1 [YY-005]
0.1 to 1	–	CCOc1ccc(-c2nccc3nc(Nc4ccc(OCCN5CCCC5)c(OC)c4)nn23)cc1 [YY-006]
0.1 to 1	–	CCOc1ccc(-c2nccc3nc(Nc4ccc(OCCN5CCCC5)cc4)nn23)cc1 [YY-007]
0.1 to 1	–	COc1cc(Nc2nc3ccnc(-c4ccc5c(c4)OCCO5)n3n2)ccc1OCCN1CCCC1 [YY-008]
0.1 to 1	–	CCN(CC)CCOc1cccc(Nc2nc3ccnc(-c4ccc5c(c4)OCCO5)n3n2)c1 [YY-009]
0.1 to 1	–	c1cc2nc(Nc3ccc(OCCN4CCCC4)cc3)nn2c(-c2ccc3c(c2)OCCO3)n1 [YY-010]
0.1 to 1	–	c1ccc(Cn2cc(-c3nccc4nc(Nc5ccc(OCCN6CCCC6)cc5)nn34)cn2)cc1 [YY-011, [5-(1-Benzyl-1H-pyrazol-4-yl)-[1,2,4]triazolo[1,5-c]pyrimidin-2-yl]-[4-(2-pyrrolidin-1-yl-ethoxy)-phenyl]-amine]
0.1 to 1	–	FC(F)(F)c1ccc(-c2nccc3nc(Nc4ccc(OCCN5CCCC5)cc4)nn23)cc1 [YY-013]
≤ 0.1	–	Cc1ccc(-c2nccc3nc(Nc4ccc(OCCN5CCCC5)cc4)nn23)cc1F [YY-014]
